Assay results taken from the kinase profiling compilation of Christmann-Franck et al. (2016).

Columns and labels:
Experiment in all cases: KINOMEscan competition binding
Details in all cases: compound 10.0 µM
[1] = system: ABL1 (human), P00519 [E255K]
[2] = system: ABL1 (human), P00519 [Y253F]
ANKK1 (human) = ANKK1 (human) (UniProt Q8NFD2)
CDC2L2 (human) = CDC2L2 (human) (UniProt Q9UQ88)
CDK11B (human) = CDK11B (human) (UniProt P21127)
CDK15 (human) = CDK15 (human) (UniProt Q96Q40)
CDK18 (human) = CDK18 (human) (UniProt Q07002)
CDK2 (human) = CDK2 (human) (UniProt P24941)
CHUK (human) = CHUK (human) (UniProt O15111)
[3] = system: EGFR (human), P00533 [L861Q]
EPHA2 (human) = EPHA2 (human) (UniProt P29317)
Chain of EPHA2 (human) (P29317 whole entry, looked up): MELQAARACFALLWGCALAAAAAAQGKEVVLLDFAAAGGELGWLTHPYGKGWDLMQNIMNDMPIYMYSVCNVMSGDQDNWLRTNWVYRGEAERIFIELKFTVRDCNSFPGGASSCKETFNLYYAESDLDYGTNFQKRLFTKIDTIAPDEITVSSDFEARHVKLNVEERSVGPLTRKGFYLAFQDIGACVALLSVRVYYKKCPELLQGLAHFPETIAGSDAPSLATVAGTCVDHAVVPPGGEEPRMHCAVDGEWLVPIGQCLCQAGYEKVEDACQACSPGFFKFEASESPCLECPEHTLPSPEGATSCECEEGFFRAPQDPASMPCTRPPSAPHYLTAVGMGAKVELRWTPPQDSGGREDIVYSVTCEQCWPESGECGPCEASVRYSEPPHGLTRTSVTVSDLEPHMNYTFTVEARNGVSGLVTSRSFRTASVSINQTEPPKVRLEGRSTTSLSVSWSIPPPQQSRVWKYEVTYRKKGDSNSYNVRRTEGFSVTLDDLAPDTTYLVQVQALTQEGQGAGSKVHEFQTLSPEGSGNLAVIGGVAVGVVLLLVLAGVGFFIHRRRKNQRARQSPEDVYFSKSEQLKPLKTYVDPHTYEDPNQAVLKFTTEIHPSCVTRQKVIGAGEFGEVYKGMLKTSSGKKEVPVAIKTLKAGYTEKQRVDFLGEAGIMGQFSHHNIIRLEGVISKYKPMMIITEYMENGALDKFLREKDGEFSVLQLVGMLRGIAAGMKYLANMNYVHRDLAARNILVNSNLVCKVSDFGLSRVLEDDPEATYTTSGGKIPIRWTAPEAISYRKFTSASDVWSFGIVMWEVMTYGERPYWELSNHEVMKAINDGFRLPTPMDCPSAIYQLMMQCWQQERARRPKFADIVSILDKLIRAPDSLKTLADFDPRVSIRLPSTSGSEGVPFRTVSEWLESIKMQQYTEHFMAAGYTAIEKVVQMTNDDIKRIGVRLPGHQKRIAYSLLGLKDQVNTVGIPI

EPHA4 (human) = EPHA4 (human) (UniProt P54764)
EPHA8 (human) = EPHA8 (human) (UniProt P29322)
ERBB4 (human) = ERBB4 (human) (UniProt Q15303)
Chain of ERBB4 (human) (Q15303 whole entry, looked up): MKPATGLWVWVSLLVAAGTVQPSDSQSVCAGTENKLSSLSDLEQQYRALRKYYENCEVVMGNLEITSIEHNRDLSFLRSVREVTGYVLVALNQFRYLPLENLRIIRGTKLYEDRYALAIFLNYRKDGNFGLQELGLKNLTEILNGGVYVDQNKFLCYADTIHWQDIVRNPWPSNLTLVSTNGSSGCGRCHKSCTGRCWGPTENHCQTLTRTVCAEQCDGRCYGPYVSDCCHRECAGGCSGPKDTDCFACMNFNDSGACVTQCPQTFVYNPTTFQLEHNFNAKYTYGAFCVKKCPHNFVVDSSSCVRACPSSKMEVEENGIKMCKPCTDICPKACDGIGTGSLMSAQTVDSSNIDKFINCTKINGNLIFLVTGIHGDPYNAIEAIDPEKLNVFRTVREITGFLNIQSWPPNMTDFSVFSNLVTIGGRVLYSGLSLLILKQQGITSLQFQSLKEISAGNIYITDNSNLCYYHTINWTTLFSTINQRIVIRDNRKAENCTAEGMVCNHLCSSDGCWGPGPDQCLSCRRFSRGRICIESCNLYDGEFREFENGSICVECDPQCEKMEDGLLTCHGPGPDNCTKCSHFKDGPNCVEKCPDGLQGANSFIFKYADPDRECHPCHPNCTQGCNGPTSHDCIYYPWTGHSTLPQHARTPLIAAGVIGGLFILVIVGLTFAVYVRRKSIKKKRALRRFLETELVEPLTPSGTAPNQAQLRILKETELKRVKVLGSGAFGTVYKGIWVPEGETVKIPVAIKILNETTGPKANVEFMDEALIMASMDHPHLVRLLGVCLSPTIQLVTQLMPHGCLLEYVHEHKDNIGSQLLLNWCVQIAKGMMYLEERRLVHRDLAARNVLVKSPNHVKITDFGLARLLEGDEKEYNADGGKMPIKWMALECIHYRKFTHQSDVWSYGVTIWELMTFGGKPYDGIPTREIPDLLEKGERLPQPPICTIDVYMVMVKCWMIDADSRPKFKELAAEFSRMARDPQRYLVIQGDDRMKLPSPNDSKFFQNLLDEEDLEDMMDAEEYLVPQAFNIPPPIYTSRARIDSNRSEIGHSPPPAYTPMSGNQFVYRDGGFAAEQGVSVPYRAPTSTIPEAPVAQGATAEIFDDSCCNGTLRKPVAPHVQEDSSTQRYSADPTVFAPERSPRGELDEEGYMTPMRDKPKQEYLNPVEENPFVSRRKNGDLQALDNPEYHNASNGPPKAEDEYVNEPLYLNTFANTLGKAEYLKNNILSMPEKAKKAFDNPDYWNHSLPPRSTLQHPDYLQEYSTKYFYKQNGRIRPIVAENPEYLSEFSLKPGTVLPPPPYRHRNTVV

[4] = system: FGFR3 (human), P22607 [G697C]
Chain of FGFR3 (human), P22607 [G697C] (P22607 whole entry G697C, looked up): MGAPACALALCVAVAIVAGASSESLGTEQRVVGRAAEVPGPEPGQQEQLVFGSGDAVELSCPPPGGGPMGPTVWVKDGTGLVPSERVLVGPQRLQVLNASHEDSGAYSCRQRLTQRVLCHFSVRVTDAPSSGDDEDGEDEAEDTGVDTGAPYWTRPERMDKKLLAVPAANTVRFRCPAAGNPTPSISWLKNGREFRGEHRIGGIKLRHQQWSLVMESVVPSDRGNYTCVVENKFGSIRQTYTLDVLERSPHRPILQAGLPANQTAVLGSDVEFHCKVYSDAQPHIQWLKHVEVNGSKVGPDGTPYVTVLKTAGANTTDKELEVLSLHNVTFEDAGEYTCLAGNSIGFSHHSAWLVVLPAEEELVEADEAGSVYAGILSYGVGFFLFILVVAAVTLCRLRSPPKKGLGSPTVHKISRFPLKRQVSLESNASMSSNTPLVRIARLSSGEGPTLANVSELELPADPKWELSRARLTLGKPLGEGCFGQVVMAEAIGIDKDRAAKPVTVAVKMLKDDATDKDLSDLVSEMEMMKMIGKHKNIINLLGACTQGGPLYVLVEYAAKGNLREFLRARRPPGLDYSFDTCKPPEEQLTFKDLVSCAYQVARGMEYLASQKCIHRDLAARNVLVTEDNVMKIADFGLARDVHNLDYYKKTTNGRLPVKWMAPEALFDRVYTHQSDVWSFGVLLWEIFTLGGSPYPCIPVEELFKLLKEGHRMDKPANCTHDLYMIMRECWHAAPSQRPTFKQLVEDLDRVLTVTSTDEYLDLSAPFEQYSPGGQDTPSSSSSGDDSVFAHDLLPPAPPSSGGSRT

[5] = system: FLT3 (human), P36888 [D835H]
[6] = system: KIT (human), P10721 [V559D]
Chain of KIT (human), P10721 [V559D] (P10721 whole entry V559D, looked up): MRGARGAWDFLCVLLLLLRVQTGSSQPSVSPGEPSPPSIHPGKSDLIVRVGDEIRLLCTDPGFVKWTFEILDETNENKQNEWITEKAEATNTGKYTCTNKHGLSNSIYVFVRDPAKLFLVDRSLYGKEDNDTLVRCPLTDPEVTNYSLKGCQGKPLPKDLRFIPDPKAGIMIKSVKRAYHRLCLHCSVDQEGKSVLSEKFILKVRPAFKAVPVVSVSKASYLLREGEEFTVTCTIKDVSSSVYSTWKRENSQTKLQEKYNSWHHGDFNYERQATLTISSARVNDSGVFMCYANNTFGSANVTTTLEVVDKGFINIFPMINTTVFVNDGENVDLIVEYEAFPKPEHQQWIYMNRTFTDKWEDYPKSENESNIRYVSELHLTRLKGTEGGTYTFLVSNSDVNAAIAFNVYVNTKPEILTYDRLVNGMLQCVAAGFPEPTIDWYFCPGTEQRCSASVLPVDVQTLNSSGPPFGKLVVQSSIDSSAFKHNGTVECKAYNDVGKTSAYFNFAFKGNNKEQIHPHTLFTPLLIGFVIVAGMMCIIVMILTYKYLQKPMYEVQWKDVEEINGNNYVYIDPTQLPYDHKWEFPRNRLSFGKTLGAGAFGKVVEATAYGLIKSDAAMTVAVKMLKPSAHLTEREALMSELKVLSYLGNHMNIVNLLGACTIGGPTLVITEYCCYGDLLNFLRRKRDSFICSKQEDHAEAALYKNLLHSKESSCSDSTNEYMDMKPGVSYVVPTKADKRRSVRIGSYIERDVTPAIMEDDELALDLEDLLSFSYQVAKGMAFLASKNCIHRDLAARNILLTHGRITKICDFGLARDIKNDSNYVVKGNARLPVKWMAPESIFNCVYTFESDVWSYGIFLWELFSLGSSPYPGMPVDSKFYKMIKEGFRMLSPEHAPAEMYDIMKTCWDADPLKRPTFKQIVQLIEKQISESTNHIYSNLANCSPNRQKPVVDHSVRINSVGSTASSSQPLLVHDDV

MAP4K1 (human) = MAP4K1 (human) (UniProt Q92918)
MAPK9 (human) = MAPK9 (human) (UniProt P45984)
STK10 (human) = STK10 (human) (UniProt O94804)
ULK3 (human) = ULK3 (human) (UniProt Q6PHR2)
AURKC (human) = AURKC (human) (UniProt Q9UQB9)
CLK3 (human) = CLK3 (human) (UniProt P49761)
DCLK3 (human) = DCLK3 (human) (UniProt Q9C098)
EIF2AK2 (human) = EIF2AK2 (human) (UniProt P19525)
EPHA1 (human) = EPHA1 (human) (UniProt P21709)
EPHB3 (human) = EPHB3 (human) (UniProt P54753)
GSK3A (human) = GSK3A (human) (UniProt P49840)
IKBKE (human) = IKBKE (human) (UniProt Q14164)
MAP2K6 (human) = MAP2K6 (human) (UniProt P52564)
MINK1 (human) = MINK1 (human) (UniProt Q8N4C8)
MST1R (human) = MST1R (human) (UniProt Q04912)
NEK1 (human) = NEK1 (human) (UniProt Q96PY6)
NEK6 (human) = NEK6 (human) (UniProt Q9HC98)
NTRK1 (human) = NTRK1 (human) (UniProt P04629)
PIM2 (human) = PIM2 (human) (UniProt Q9P1W9)
PRKACA (human) = PRKACA (human) (UniProt P17612)
PRKCH (human) = PRKCH (human) (UniProt P24723)
PRKG1 (human) = PRKG1 (human) (UniProt Q13976)
RIPK4 (human) = RIPK4 (human) (UniProt P57078)
SRPK3 (human) = SRPK3 (human) (UniProt Q9UPE1)
STK25 (human) = STK25 (human) (UniProt O00506)
TEC (human) = TEC (human) (UniProt P42680)

Chain of CDK11B (human) (P21127 whole entry, looked up): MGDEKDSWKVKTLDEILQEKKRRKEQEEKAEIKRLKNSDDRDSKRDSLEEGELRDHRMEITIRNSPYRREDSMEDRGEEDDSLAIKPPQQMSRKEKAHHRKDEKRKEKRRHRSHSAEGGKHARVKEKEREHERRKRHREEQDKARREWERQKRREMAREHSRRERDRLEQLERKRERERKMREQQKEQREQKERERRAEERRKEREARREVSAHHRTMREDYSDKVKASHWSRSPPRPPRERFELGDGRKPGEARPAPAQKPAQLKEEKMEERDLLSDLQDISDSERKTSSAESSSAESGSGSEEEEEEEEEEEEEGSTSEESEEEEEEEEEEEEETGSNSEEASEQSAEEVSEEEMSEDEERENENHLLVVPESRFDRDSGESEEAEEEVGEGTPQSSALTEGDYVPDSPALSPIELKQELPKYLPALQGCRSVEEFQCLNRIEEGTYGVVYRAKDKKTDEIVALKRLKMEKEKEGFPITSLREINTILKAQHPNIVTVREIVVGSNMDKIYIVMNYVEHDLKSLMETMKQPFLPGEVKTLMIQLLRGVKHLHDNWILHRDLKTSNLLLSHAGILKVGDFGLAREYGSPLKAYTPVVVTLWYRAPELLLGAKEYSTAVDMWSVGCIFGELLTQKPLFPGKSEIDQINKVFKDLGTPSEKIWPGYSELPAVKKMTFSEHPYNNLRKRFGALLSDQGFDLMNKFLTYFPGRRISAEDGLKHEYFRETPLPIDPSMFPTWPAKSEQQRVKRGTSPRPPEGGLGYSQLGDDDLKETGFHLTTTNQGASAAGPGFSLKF

## CCN1CCN(Cc2ccc(NC(=O)c3ccc(C)c(Oc4ccnc5[nH]ccc45)c3)cc2C(F)(F)F)CC1
[1]
  kinase still bound, per cent of control: 1.2%
[2]
  kinase still bound, per cent of control: 1.1%
ANKK1 (human)
  kinase still bound, per cent of control: 23%
CDC2L2 (human)
  kinase still bound, per cent of control: 0.05%
CDK11B (human)
  kinase still bound, per cent of control: 0.35%
CDK15 (human)
  kinase still bound, per cent of control: 6%
CDK18 (human)
  kinase still bound, per cent of control: 1.8%
CDK2 (human)
  kinase still bound, per cent of control: 11%
CHUK (human)
  kinase still bound, per cent of control: 0.95%
[3]
  kinase still bound, per cent of control: 15%
EPHA2 (human)
  kinase still bound, per cent of control: 3.1%
EPHA4 (human)
  kinase still bound, per cent of control: 5.8%
EPHA8 (human)
  kinase still bound, per cent of control: 0.1%
ERBB4 (human)
  kinase still bound, per cent of control: 28%
[4]
  kinase still bound, per cent of control: 16%
[5]
  kinase still bound, per cent of control: 1.2%
[6]
  kinase still bound, per cent of control: 0%
MAP4K1 (human)
  kinase still bound, per cent of control: 1.6%
MAPK9 (human)
  kinase still bound, per cent of control: 0%
STK10 (human)
  kinase still bound, per cent of control: 0%
ULK3 (human)
  kinase still bound, per cent of control: 0.1%

## COc1cc(N2CCC(N3CCN(C)CC3)CC2)ccc1Nc1ncc(Cl)c(Nc2ccccc2S(=O)(=O)C(C)C)n1
[1]
  kinase still bound, per cent of control: 19%
[2]
  kinase still bound, per cent of control: 4.2%
ANKK1 (human)
  kinase still bound, per cent of control: 40%
AURKC (human)
  kinase still bound, per cent of control: 0.1%
CDK11B (human)
  kinase still bound, per cent of control: 40%
CDK18 (human)
  kinase still bound, per cent of control: 40%
CDK2 (human)
  kinase still bound, per cent of control: 24%
CHUK (human)
  kinase still bound, per cent of control: 40%
CLK3 (human)
  kinase still bound, per cent of control: 3%
DCLK3 (human)
  kinase still bound, per cent of control: 0%
[3]
  kinase still bound, per cent of control: 0.15%
EIF2AK2 (human)
  kinase still bound, per cent of control: 40%
EPHA1 (human)
  kinase still bound, per cent of control: 0.15%
EPHA2 (human)
  kinase still bound, per cent of control: 27%
EPHA4 (human)
  kinase still bound, per cent of control: 30%
EPHA8 (human)
  kinase still bound, per cent of control: 40%
EPHB3 (human)
  kinase still bound, per cent of control: 18%
ERBB4 (human)
  kinase still bound, per cent of control: 1.2%
[4]
  kinase still bound, per cent of control: 0.25%
GSK3A (human)
  kinase still bound, per cent of control: 40%
IKBKE (human)
  kinase still bound, per cent of control: 25%
[6]
  kinase still bound, per cent of control: 0.1%
MAP2K6 (human)
  kinase still bound, per cent of control: 40%
MAPK9 (human)
  kinase still bound, per cent of control: 12%
MINK1 (human)
  kinase still bound, per cent of control: 40%
MST1R (human)
  kinase still bound, per cent of control: 3%
NEK1 (human)
  kinase still bound, per cent of control: 40%
NEK6 (human)
  kinase still bound, per cent of control: 1.8%
NTRK1 (human)
  kinase still bound, per cent of control: 12%
PIM2 (human)
  kinase still bound, per cent of control: 40%
PRKACA (human)
  kinase still bound, per cent of control: 11%
PRKCH (human)
  kinase still bound, per cent of control: 40%
PRKG1 (human)
  kinase still bound, per cent of control: 1.3%
RIPK4 (human)
  kinase still bound, per cent of control: 40%
SRPK3 (human)
  kinase still bound, per cent of control: 1.7%
STK10 (human)
  kinase still bound, per cent of control: 0%
STK25 (human)
  kinase still bound, per cent of control: 40%
TEC (human)
  kinase still bound, per cent of control: 0.7%
ULK3 (human)
  kinase still bound, per cent of control: 0%
